Source: a melting point compilation (Tetko et al.; mined from patent text by program, amines drawn as free bases though some values may be those of a salt)

Work on `CNCC1Cc2cc(Cl)cc(C3CCCCC3)c2O1` (stereo unspecified) yielded a melting point of 125 to 128 °C.
With `COc1ccc2ccc(N3C(=O)C4=C(SCCO4)C3O)nc2n1` (stereo unspecified) the melting point was 222 °C.
In the case of `COc1cc2c(cc1-c1cnccn1)-c1c(-c3cccs3)c3c(n1CC2)C(=O)N(C(C)(C)C)CCCOC3`, the melting point was 267 to 268 °C.
In the case of `COc1ccc(C(C)(C)C)cc1S(=O)(=O)Cl`, the melting point was 75 to 77 °C.
With `N#Cc1cc(C(F)(F)F)ccc1Oc1ccc([N+](=O)[O-])c(C(=O)O)c1` the melting point was 190 to 192 °C.
With `COc1ccc(CN(C)CCNc2ccc(NC(=O)c3cccc4c(=O)c5cccc(OC)c5[nH]c34)cc2)cc1OC` the melting point was 196 °C.
In the case of `CC(C)(C)OC1C2C=CC1C1N=NC21` (stereo unspecified), the melting point was 78 °C.
With `C[C@H]1N(S(C)(=O)=O)CO[C@@]1(Cn1cncn1)c1ccc(Cl)cc1Cl` (relative stereo) the melting point was 167 to 172 °C.
`N#Cc1cc(NC(=O)c2cc3ccccc3s2)ccc1N1CCN(CCO)CC1` gave a melting point of 238 to 239 °C.
`Cc1csc(C(=O)N2CCCC2)c1-n1cccc1` showed a melting point of 178 °C.
In the case of `CCCCC(CC)COCCCN1C(C)=CC(=C(C#N)C(=O)OCC(CC)CCCC)C=C1C` (stereo unspecified), the melting point was 69 to 70 °C.
`COC(=O)c1nnc(Cl)cc1Cl` showed a melting point of 57 to 59.5 °C.
For `O=S(=O)(Nc1ccc(Cl)nc1I)c1ccc2ncccc2c1`, the melting point was > 250 °C.
With `CN(C1CCS(=O)(=O)C1)S(=O)(=O)c1ccc(Nc2nccc(Nc3ccc(F)cc3)n2)cc1` (stereo unspecified) the melting point was 236 to 240 °C.
For `N#Cc1ccc(/C=C/C(=O)/C=C/c2ccc(C#N)cc2)cc1`, the melting point was 137 to 138 °C.
Work on `CCN(CCNS(C)(=O)=O)c1ccc(NC(C)=O)c(C)c1` yielded a melting point of 104 to 105 °C.
`CCCCCCCCC1CNc2cc(C(=O)OC)ccc21` (racemic) showed a melting point of 57 to 60 °C.
Compound `Cc1nc2cc(-c3ccc(C=C4SC(=O)NC4=O)cn3)cc(OCc3ccccc3)c2o1` has a melting point of 245 °C.
For `CC(=O)C(=O)Nc1ccc(-c2ccc(C(=O)O)c(=O)[nH]2)cc1`, the melting point was > 280 °C.
`CN(C)CC(O)COc1ccc(C=CC(=O)N2CCc3c([nH]c4ccccc34)C2c2ccc3c(c2)CCO3)cc1` (stereo unspecified) gave a melting point of 138 °C.
Work on `C=CCNc1nc(NCC(=C)C)c2scc(C)c2n1` yielded a melting point of 83 °C.
For `CC(C)COC1C=CC(=O)N1S(=O)(=O)c1ccccc1` (stereo unspecified), the melting point was 82 to 83 °C.
Work on `CC(c1ccccc1)n1cncc1C#N` (single isomer, unassigned; (+)) yielded a melting point of 97 to 99 °C.
Compound `COCc1cc(-c2ccccc2N)[nH]n1` has a melting point of 74 to 78 °C.
`Cc1cc2c(-c3cccnc3)c(CC(=O)O)c(=O)oc2cc1Cl` showed a melting point of 279 to 281 °C.
Compound `Cc1c(CC(=O)O)c2cc(OCc3csc(-c4ccccc4)n3)ccc2n1Cc1ccccc1` has a melting point of 150 to 151 °C.
Compound `FCCn1cc(-c2ccc3nnn(Cc4ccc5ncccc5c4)c3n2)cn1` has a melting point of 168 to 170 °C.
Work on `O=c1oc(-c2cccc(OC(F)F)c2)nc2ccccc12` yielded a melting point of 84 to 87 °C.
`Cn1cc(-c2ccc3nc(NC(=O)c4ccc(C(C)(C)C)nc4)cn3n2)cn1` gave a melting point of 251 to 252 °C.
In the case of `O=C(CCC1CCCCC1)NC1N=C(c2ccccc2)c2ccccc2NC1=NO` (stereo unspecified), the melting point was 196 °C.
With `CN(C(=O)CCS(C)=O)c1cnc(-c2cncc(F)c2)s1` (stereo unspecified) the melting point was 152 to 154 °C.
`COc1ccc([C@]2(C)Cc3cc(OC)ccc3[C@@H]2CCC2OCCCO2)cc1` (racemic) showed a melting point of 86 to 88 °C.
Work on `O=CN1CC2CC1CN2c1cc2c(cc1F)c(=O)c(C(=O)O)cn2-c1ccc(F)cc1` (stereo unspecified) yielded a melting point of 274 to 276 °C.
`CCC(=O)OC(CC)c1nc2c(C(F)(F)F)cccc2c(O)c1C(=O)Nc1ccccn1` (stereo unspecified) gave a melting point of 204 °C.
In the case of `Cc1nn(C)cc1S(N)(=O)=O`, the melting point was 97 to 105 °C.
Work on `O=C(Nc1ccc(C(F)(F)F)cc1)N1CC2CCc3ccccc3C2=N1` (stereo unspecified) yielded a melting point of 149 to 151 °C.
Work on `O=C(NCCCCn1ccnc1)c1ccco1` yielded a melting point of 88 to 90 °C.
Compound `CCC(CC)Nc1c([N+](=O)[O-])cc(C)c(N)c1[N+](=O)[O-]` has a melting point of 157 to 160 °C.
`CCc1nccn1CC1CC2c3cccc4[nH]cc(c34)CC2N(C)C1` (stereo unspecified) showed a melting point of 232 to 237 °C.
`CCCN(CCC)C1Cc2cccc(C(N)=O)c2NC1=O` (stereo unspecified) showed a melting point of 214 to 217 °C.
Work on `Cn1cc(C(=O)NCc2ccc(Cl)cc2)c(=O)c2cc(CN3CCOCC3)cc(F)c21` yielded a melting point of 187 to 189 °C.
Work on `CC1CCN(S(=O)(=O)Nc2cc(C(c3cc(F)ccc3F)S(=O)(=O)c3ccc(Cl)cc3)c(Cl)cn2)CC1` (stereo unspecified) yielded a melting point of 215 to 218 °C.
`CN1CCN(Cc2ccc3c(c2)Cc2c(-c4ccsc4)n[nH]c2-3)CC1` showed a melting point of 115 to 117 °C.
In the case of `CCN=C(c1ccc(OC)c(OC)c1)N1CCCc2cc(C3=NNC(=O)SC3C)ccc21` (stereo unspecified), the melting point was 208 °C.
With `Fc1ccccc1C(Cl)(c1ccccc1)c1ccccc1` the melting point was 134 to 135 °C.
With `Cc1cc(-c2nnc3c4ccccc4c(OCc4ccncn4)nn23)no1` the melting point was 222 to 224 °C.
`COc1ccc(C2CC(c3ccc(F)cc3)=NN2c2ccc(C(=O)O)cc2)cc1` (stereo unspecified) gave a melting point of 218 °C.
For `Cn1c(=O)c2c(nc(C=Cc3cccc(N)c3)n2C)n(C)c1=O`, the melting point was 222 to 224 °C.
In the case of `N#Cc1ccc(Cn2c3cc(O)c(O)cc3c3c(Br)cc(O)c(O)c32)cc1`, the melting point was > 260 °C.
`Cc1cc(OCC(=O)O)c2sc3ccccc3c(=O)c2c1C` gave a melting point of 226 to 229 °C.
`COc1nc(-c2ccc(Cl)cc2)nc(Cl)c1Cl` showed a melting point of 157 to 159 °C.
With `O=[N+]([O-])c1cc(Cl)cnc1Oc1ccc(O)cc1` the melting point was 125 to 126 °C.
Work on `Cc1ncc2cc(-c3c(Cl)cccc3Cl)c(NS(C)(=O)=O)nc2n1` yielded a melting point of 212 to 213 °C.
`COc1c(SC)ccc(C(=O)C(C#N)C(=O)C2CC2)c1Br` (stereo unspecified) showed a melting point of 128 to 129 °C.
Work on `CC#CCOc1ccc(SC(C(=O)NO)c2ccc(Cl)cc2)cc1` (stereo unspecified) yielded a melting point of 152 °C.
`CC(=C(C#N)C(=O)c1ccccc1)N(C)C` showed a melting point of 105 to 106 °C.
In the case of `CN(CCCNc1ncc(Cc2cccc(Cl)c2)c(=O)[nH]1)c1ccccn1`, the melting point was 105 to 107 °C.
In the case of `CC(=C(C#N)C#N)c1ccc2cc(N3CCN(C(=O)OC(C)(C)C)CC3)ccc2c1`, the melting point was 169 to 171 °C.
`COc1ccc(C2CCN(c3c(C)c(C)c4c(c3C)C(O)(c3ccc(F)cc3)C(C)(C)O4)CC2)cc1OC` (stereo unspecified) showed a melting point of 150 to 152 °C.
Compound `O=c1[nH]c2cc(Cl)ccc2c(O)c1-c1cccc(OCc2ccccc2)c1` has a melting point of 293 to 295 °C.
Work on `COc1cc(Nc2c(C#N)cnc3cc(-c4ccc(CNCCS(=O)(=O)c5ccccc5)cc4)ccc23)c(Cl)cc1Cl` yielded a melting point of 198 to 201 °C.
`O=C(Cl)c1cc(OCc2ccccc2)cc([N+](=O)[O-])c1` showed a melting point of 84 to 85 °C.
In the case of `CCCCc1ccc(-c2ccc(CCC3OCC(CCC)CO3)cc2)c(F)c1` (stereo unspecified), the melting point was 36 °C.
`CCO/N=C(\C)[C@H]1CC[C@H]2[C@@H]3CC=C4C[C@@H](O)CC[C@]4(C)[C@H]3CC[C@]12C` showed a melting point of 119 to 121 °C.
Work on `COc1ccc(-c2nc(S(=O)c3ccccc3)[nH]c2-c2ccc(OC)cc2)cc1` (stereo unspecified) yielded a melting point of 188 to 190 °C.
Work on `COc1cc2nc(N)nc(-c3cccc(I)c3)c2cc1OC` yielded a melting point of 235 to 242 °C.
`CC(C)CCCC(C)C1CCC2(CC(=O)O)C3=C(CCC12C)C1(C)CCC(O)CC1CC3` (stereo unspecified) gave a melting point of 191 to 193 °C.
Work on `COC(=O)CCCC#Cc1cc(Cl)ccc1NS(=O)(=O)c1cc(C)cc(C)c1` yielded a melting point of 92 to 94 °C.
In the case of `O=c1[nH]c2ccc(C3=NOC(CN4CCC(S(=O)c5ccc(F)cc5)CC4)C3)cc2o1` (stereo unspecified), the melting point was 170 to 178 °C.
For `Nc1ncc(-c2noc(-c3cnn4c(C(F)(F)F)cc(-c5ccc(C(F)(F)F)c(F)c5)nc34)n2)cn1`, the melting point was 270 °C.
Compound `Clc1cccc(Nn2cnc3c2CCCC3)c1` has a melting point of 180 °C.
With `COc1ccc(Cn2c(NC3CCN(CCNc4ncccn4)CC3)nc3ccccc32)cc1` the melting point was 160 °C.
`O=C(CCCCOc1ccc(OCc2ccccc2)cc1)C(F)(F)F` gave a melting point of 95.5 to 96 °C.
`CC#CCOc1cc(Oc2ccc(F)c(F)c2)ncn1` showed a melting point of 110 °C.
In the case of `COc1cccc([C@H]2O[C@H](CC(=O)Nc3cc4c(c(CCC(=O)O)c3)CCCC4)C(=O)N(CC(C)(C)CO)c3ccc(Cl)cc32)c1OC`, the melting point was 160 to 162 °C.
`CC(C(=O)N1c2ccccc2C(=O)N(C)c2cccnc21)N1CCN(C)CC1` (stereo unspecified) gave a melting point of 206 to 208 °C.
For `COc1cc(-c2nc3ccc(O)cc3n2Cc2ccccc2Br)cc(OC)c1OC`, the melting point was 208 °C.
`COc1ccccc1C(=O)Nc1ccc(N2CCCC2)cc1C(C)=O` showed a melting point of 168 to 170 °C.
For `CC1COc2c(F)c(F)cc3c(=O)c(C(=O)O)cn1c23` (stereo unspecified), the melting point was > 280 °C.
Compound `Cc1ccc(CNc2nc(Nc3cccc(N)c3)nc(OCC(F)(F)F)n2)o1` has a melting point of 75 to 77 °C.
Compound `COC(=O)c1cc(-c2c(OC)cccc2OC)n(-c2ccc(NS(=O)(=O)c3ccc(C)cc3)cc2CC(C)C)n1` has a melting point of 224 °C.
`CCN1C(=O)CSC1=NOC(=O)N(C)SC(Cl)(Cl)Cl` gave a melting point of 126 to 128 °C.
Compound `COc1cc(CC(=O)O)ccc1N(C(N)=O)c1ccccc1C(F)(F)F` has a melting point of 218 to 220 °C.
With `N#CC1(N2CCC(O)CC2)CCSCC1` the melting point was 79 to 81 °C.
For `CCCCSc1cc(C(=O)O)cc(N)c1Oc1ccccc1`, the melting point was 131 to 132 °C.
`Cc1ccc(Oc2cccc(C3C4=C(CC(C)(C)CC4=O)NC4=C3C(=O)CC(C)(C)C4)c2)cc1` showed a melting point of 202 to 203 °C.
Work on `Cc1cccc(C2=CCN(c3ccc(O)nn3)CC2)c1` yielded a melting point of 179 °C.
`CCCCNC(=O)Oc1ccc(Oc2ccc(C(C)(C)C)cc2)cc1` gave a melting point of 78 to 80 °C.
With `CCOc1ccc2[nH]cc(C(=O)NCc3ccccc3)c(=O)c2n1` the melting point was 199 °C.
With `CC12CCC3c4ccc(O)cc4CC(CCCCCO)C3C1C=CC2=O` (stereo unspecified) the melting point was 194 to 196 °C.
`CC(C)C#CC1(C(F)(F)F)OCC(=O)Nc2ccc(Cl)cc21` (stereo unspecified) showed a melting point of 183 to 184 °C.
`NS(=O)(=O)c1ccc(-c2cc(C(=O)CCCO)nn2C2CCCCC2)cc1` gave a melting point of 152 to 154 °C.
In the case of `N[C@@]1(C(=O)O)C[C@H](NC(=O)Nc2cccc3ccccc23)[C@H]2[C@H](C(=O)O)[C@H]21` (relative stereo), the melting point was > 275 °C.
`CN(C)CCN(C)C(=O)[C@H]1CC[C@H](N(C)S(=O)(=O)c2ccc(C(F)(F)F)cc2)CC1` showed a melting point of 83 °C.
Work on `C[C@H](Cn1nnc2ccccc21)n1cnc2cc3c(=O)n(C4CC4)nnc3cc2c1=O` yielded a melting point of 103 to 105 °C.
`C#Cc1cc2ccccc2[nH]1` showed a melting point of 64 to 65 °C.
